Laboratory results reported in US11000033B2, “Ketone or oxime compound, and herbicide” (NISSAN CHEMICAL CORPORATION, priority 2014, dated 2021).

How the values were obtained:
Type in all cases: in vivo
[1] = system: wheat; assay: Test Example 5: effect on crop by foliage application, plastic box (symbol e); details: 320 g/ha, 3 weeks after application
Outline: (§1)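 Greenhouse culture at 25° C. to 30° C. followed spot-like sowing into sterilized diluvial soil, with seed covered by roughly 1.5 cm of soil.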

[2] = system: Alopecurus myosuroides; assay: Test Example 4: herbicidal effect by soil treatment (symbol J); details: application herbicide amount 320 g/ha
Outline: (§2)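 Seeds were sown in sterilized diluvial soil, covered with about 1.5 cm of soil, and the soil surface was sprayed with a water-diluted emulsion of the compound at a predetermined rate. Plants grew in a greenhouse at 25° C. to 30° C.; effects were scored visually 3 weeks after application.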

[3] = system: corn; assay: Test Example 4: effect on crop by soil treatment (symbol c); details: application herbicide amount 320 g/ha
Outline: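 Steps: fill box with sterilized diluvial soil; sow seed spot-like; cover with ~1.5 cm soil; grow in greenhouse (25° C. to 30° C.).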

[4] = system: Digitaria ciliaris; assay: Test Example 4: herbicidal effect by soil treatment (symbol F); details: application herbicide amount 320 g/ha
Outline: as §2

[5] = system: Leptochloa chinensis; assay: Test Example 3: herbicidal effect by foliage application, Wagner pot (symbol D); details: application herbicide amount 320 g/ha; for D (Leptochloa chinensis) herbicidal effect grade: Table 24
Outline: (§3)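 Scoring took place 3 weeks after application, using fixed criteria. Plants had been raised from seed for 14 days at 25 to 30 °C in submerged alluvial soil before a diluted emulsion of the test compound was sprayed uniformly on the leaves.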

[6] = system: Monochoria vaginalis; assay: Test Example 2: herbicidal activity, application during weed generation in submerged conditions (symbol C); details: Table 23; application herbicide amount 320 g/ha; grade 0-5 by criteria of Test Example 1
Outline: (§4)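 Read-out: herbicidal effect on each species rated on a visual scale 3 weeks after treatment. Plants were raised together from seed in flooded alluvial soil (4 cm water) at 25° C. to 30° C. and treated at one to two leaves by water-surface application of diluted emulsion.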

[7] = system: Stellaria media; assay: Test Example 5: herbicidal effect by foliage application, plastic box (symbol P); details: 320 g/ha, 3 weeks after application
Outline: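 After sowing into sterilized diluvial soil and growing two weeks under glass at 25° C. to 30° C., seedlings receive a uniform foliar spray of diluted emulsion. Damage is judged visually three weeks on.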

[8] = system: Veronica persica; assay: Test Example 4: herbicidal effect by soil treatment (symbol R); details: application herbicide amount 320 g/ha
Outline: as §2

[9] = system: Echinochloa oryzacola Vasing.; assay: Test Example 2: herbicidal activity, application during weed generation in submerged conditions (symbol A); details: Table 23; application herbicide amount 320 g/ha; grade 0-5 by criteria of Test Example 1
Outline: as §4

[10] = system: Abutilon theophrasti; assay: Test Example 4: herbicidal effect by soil treatment (symbol M); details: application herbicide amount 320 g/ha
Outline: as §2

[11] = system: Echinochloa crus-galli var. crus-galli; assay: Test Example 3: herbicidal effect by foliage application, Wagner pot (symbol H); details: application herbicide amount 320 g/ha; for H (Echinochloa crus-galli var. crus-galli) herbicidal effect grade: Table 24
Outline: as §3

[12] = system: Stellaria media; assay: Test Example 4: herbicidal effect by soil treatment (symbol P); details: application herbicide amount 320 g/ha
Outline: as §2

[13] = system: rapeseed; assay: Test Example 5: effect on crop by foliage application, plastic box (symbol g); details: 320 g/ha, 3 weeks after application
Outline: as §1

[14] = system: Cyperus difformis; assay: Test Example 3: herbicidal effect by foliage application, Wagner pot (symbol E); details: application herbicide amount 320 g/ha; for E herbicidal effect grade: Table 24
Outline: as §3

[15] = system: Setaria viridis; assay: Test Example 4: herbicidal effect by soil treatment (symbol G); details: application herbicide amount 320 g/ha
Outline: as §2

Row | Structure (SMILES) | e: wheat, effect on crop (criteria of Test Example 1) [1] | Herbicidal effect grade, J: Alopecurus myosuroides [2] | Effect on crop grade, c: corn [3] | Herbicidal effect grade, F: Digitaria ciliaris [4] | herbicidal effect on D (Leptochloa chinensis), grade 0-5 [5] | Herbicidal effect grade, C: Monochoria vaginalis [6] | P: Stellaria media, herbicidal effect (criteria of Test Example 1) [7] | Herbicidal effect grade, R: Veronica persica [8] | Herbicidal effect grade, A: Echinochloa oryzacola Vasing. [9] | Herbicidal effect grade, M: Abutilon theophrasti [10] | herbicidal effect on H (Echinochloa crus-galli var. crus-galli), grade 0-5 [11] | Herbicidal effect grade, P: Stellaria media [12] | g: rapeseed, effect on crop (criteria of Test Example 1) [13] | herbicidal effect on E, grade 0-5 [14] | Herbicidal effect grade, G: Setaria viridis [15] | E herbicidal effect grade [14] | D (Leptochloa chinensis) herbicidal effect grade [5] | H (Echinochloa crus-galli var. crus-galli) herbicidal effect grade [11] | further results
1 | CON=C(C)CC1CC(O)=C(c2c(C)cc(-c3ccsc3)cc2C)C1=O (centres unmarked) [6-106] | 3 (Herbicidal ratio of 40% or higher and lower than 70%) | 3 (Herbicidal ratio of 40% or higher and lower than 70%) | 0 (Herbicidal ratio of 5% or lower (almost no effect)) | 5 (Herbicidal ratio of 90% or more (almost completely withered)) | 5 (Herbicidal ratio of 90% or more (almost completely withered)) | 4 (Herbicidal ratio of 70% or higher and lower than 90%) | 3 (Herbicidal ratio of 40% or higher and lower than 70%) | 0 (Herbicidal ratio of 5% or lower (almost no effect)) | 5 (Herbicidal ratio of 90% or more (almost completely withered)) | 0 (Herbicidal ratio of 5% or lower (almost no effect)) | 4 (Herbicidal ratio of 70% or higher and lower than 90%) | 0 (Herbicidal ratio of 5% or lower (almost no effect)) | 5 (Herbicidal ratio of 90% or more (almost completely withered)) |  |  |  |  |  | 
2 | CON=C(C)CC1CC(OC(=O)N(C)C)=C(c2c(C)cc(C)cc2OC)C1=O (centres unmarked) [6-109] | 4 (Herbicidal ratio of 70% or higher and lower than 90%) | 5 (Herbicidal ratio of 90% or more (almost completely withered)) | 0 (Herbicidal ratio of 5% or lower (almost no effect)) | 5 (Herbicidal ratio of 90% or more (almost completely withered)) | 4 (Herbicidal ratio of 70% or higher and lower than 90%) | 2 (Herbicidal ratio of 20% or higher and lower than 40%) | 0 (Herbicidal ratio of 5% or lower (almost no effect)) | 0 (Herbicidal ratio of 5% or lower (almost no effect)) | 5 (Herbicidal ratio of 90% or more (almost completely withered)) | 0 (Herbicidal ratio of 5% or lower (almost no effect)) | 5 (Herbicidal ratio of 90% or more (almost completely withered)) | 0 (Herbicidal ratio of 5% or lower (almost no effect)) | 4 (Herbicidal ratio of 70% or higher and lower than 90%) |  |  |  |  |  | 
3 | CON=C(C)C(C)C1CC(O)=C(c2c(C)cc(Br)cc2OC)C1=O (centres unmarked) [6-113] | 5 (Herbicidal ratio of 90% or more (almost completely withered)) | 5 (Herbicidal ratio of 90% or more (almost completely withered)) | 1 (Herbicidal ratio of 5% or higher and lower than 20%) | 5 (Herbicidal ratio of 90% or more (almost completely withered)) | 5 (Herbicidal ratio of 90% or more (almost completely withered)) | 3 (Herbicidal ratio of 40% or higher and lower than 70%) | 0 (Herbicidal ratio of 5% or lower (almost no effect)) | 0 (Herbicidal ratio of 5% or lower (almost no effect)) | 5 (Herbicidal ratio of 90% or more (almost completely withered)) |  | 5 (Herbicidal ratio of 90% or more (almost completely withered)) | 0 (Herbicidal ratio of 5% or lower (almost no effect)) | 4 (Herbicidal ratio of 70% or higher and lower than 90%) | 5 (Herbicidal ratio of 90% or more (almost completely withered)) | 5 (Herbicidal ratio of 90% or more (almost completely withered)) |  |  |  | 
4 | CC(=O)CC1CC(O)=C(c2c(C)cc(Oc3ccc(C(F)(F)F)cn3)cc2C)C1=O (centres unmarked) [7-019] | 0 (Herbicidal ratio of 5% or lower (almost no effect)) | 0 (Herbicidal ratio of 5% or lower (almost no effect)) | 0 (Herbicidal ratio of 5% or lower (almost no effect)) | 3 (Herbicidal ratio of 40% or higher and lower than 70%) | 4 (Herbicidal ratio of 70% or higher and lower than 90%) |  | 0 (Herbicidal ratio of 5% or lower (almost no effect)) | 0 (Herbicidal ratio of 5% or lower (almost no effect)) |  | 0 (Herbicidal ratio of 5% or lower (almost no effect)) | 5 (Herbicidal ratio of 90% or more (almost completely withered)) | 0 (Herbicidal ratio of 5% or lower (almost no effect)) | 2 (Herbicidal ratio of 20% or higher and lower than 40%) | 2 (Herbicidal ratio of 20% or higher and lower than 40%) | 2 (Herbicidal ratio of 20% or higher and lower than 40%) |  |  |  | 
5 | COc1cc(Br)cc(F)c1C1=C(O)CC(CC(C)=O)C1=O (centres unmarked) [7-029] | 2 (Herbicidal ratio of 20% or higher and lower than 40%) | 1 (Herbicidal ratio of 5% or higher and lower than 20%) | 0 (Herbicidal ratio of 5% or lower (almost no effect)) | 0 (Herbicidal ratio of 5% or lower (almost no effect)) |  |  | 0 (Herbicidal ratio of 5% or lower (almost no effect)) | 0 (Herbicidal ratio of 5% or lower (almost no effect)) |  | 0 (Herbicidal ratio of 5% or lower (almost no effect)) |  | 0 (Herbicidal ratio of 5% or lower (almost no effect)) | 1 (Herbicidal ratio of 5% or higher and lower than 20%) |  | 4 (Herbicidal ratio of 70% or higher and lower than 90%) | 0 (Herbicidal ratio of 5% or lower (almost no effect)) | 4 (Herbicidal ratio of 70% or higher and lower than 90%) | 3 (Herbicidal ratio of 40% or higher and lower than 70%) | 
6 | CON=C(C)C(=NOC)C1CC(O)=C(c2c(C)cc(C)cc2C)C1=O (centres unmarked) [8-003] |  | 0 (Herbicidal ratio of 5% or lower (almost no effect)) | 0 (Herbicidal ratio of 5% or lower (almost no effect)) | 0 (Herbicidal ratio of 5% or lower (almost no effect)) |  | 0 (Herbicidal ratio of 5% or lower (almost no effect)) |  |  | 0 (Herbicidal ratio of 5% or lower (almost no effect)) | 0 (Herbicidal ratio of 5% or lower (almost no effect)) |  | 0 (Herbicidal ratio of 5% or lower (almost no effect)) |  |  | 0 (Herbicidal ratio of 5% or lower (almost no effect)) | 0 (Herbicidal ratio of 5% or lower (almost no effect)) | 0 (Herbicidal ratio of 5% or lower (almost no effect)) | 0 (Herbicidal ratio of 5% or lower (almost no effect)) | e: wheat, effect on crop grade [1]: 0 (Herbicidal ratio of 5% or lower (almost no effect)); P: Stellaria media, herbicidal effect grade [7]: 0 (Herbicidal ratio of 5% or lower (almost no effect)); g: rapeseed, effect on crop grade [13]: 0 (Herbicidal ratio of 5% or lower (almost no effect))
